Here are results for five compounds from patent US8841339B2, “Synergistic antifouling compositions comprising 4-bromo-2-(4-chlorophenyl)-5-(trifluoromethyl)-1H-pyrrole-3-carbonitrile” (Janssen Pharmaceutica N.V., priority 2001, dated 2014).

The test system of assay [1] is Stichococcus bacillaris (CCAP 379/1A). The assay can be described thus: Poison plate assay in 96 multi-well plates, algae growth. The class given is cell-based. As to conditions: single active ingredient, incubation time 18 days. As to the method:
(§1) Activity against algae growth was determined with the poison plate assay. A calculated amount of a stock solution (containing either 4-bromo-2-(4-chlorophenyl)-5-(trifluoromethyl)-1H-pyrrole-3-carbonitrile, bethoxazin, DCOIT, dichlofluanide, or tolylfluanide in DMSO) was pipetted into multiwell plates in order to reach a final test concentration ranging from 0.05 to 100 ppm and mixed with a warm culture medium. The medium was inoculated with 300 μl of an algal suspension. The multi-well plates were kept at 21° C., a relative humidity of 65% and light-dark cycle of 16 hours a day (1000 Lux photoperiod).
(§2) The lowest concentration of each test compound or mixture of test compounds sufficient to inhibit visible growth was taken as the minimum inhibitory concentration (MIC). The MIC were taken as end points of activity. End points for the combinations of component (I) with one of the components (II) were then compared with the end points for the pure active test compound when employed individually.
(§3) Synergism between component (I) and one of the components (II) was determined by a commonly used and accepted method described by Kull F. C. et al. in Applied Microbiology, 9, 538-541 (1961) using the Synergy Index, which is calculated as follows for two compounds A and B:
(§4) [formula] wherein: • QA is the concentration of compound A in ppm, acting alone, which produced an end point (e.g. MIC), • Qa is the concentration of compound A in ppm, in the mixture, which produced an end point (e.g. MIC), • QB is the concentration of compound B in ppm, acting alone, which produced an end point (e.g. MIC), • Qb is the concentration of compound B in ppm, in the mixture, which produced an end point (e.g. MIC).
(§5) When the Synergy Index is greater than 1.0, antagonism is indicated. When the SI is equal to 1.0, additivity is indicated.

Assay [2] deals with Chlorella vulgaris (CCAP 211/12). Described as above. As to conditions: single active ingredient, incubation time 18 days. The class given is cell-based. On the procedure: as §1, §2, §3, §4, §5

Each structure is given as a SMILES string. Marks after values point to notes of the source that are not given here. Bounds are passed on as bounds.

In the case of `CN(C)S(=O)(=O)N(SC(F)(Cl)Cl)c1ccccc1` [component (II-c), 1,1-dichloro-N-[(dimethylamino)sulfonyl]-1-fluoro-N-phenyl-methanesulfenamide], the “MIC-values (minimum inhibitory concentration)” value in assay [1] and in assay [2] was 25 ppm in each case.

In the case of `CCCCCCCCn1sc(Cl)c(Cl)c1=O` [component (II-d), 4,5-dichloro-2-(n-octyl)-3(2H)-isothiazolone], the “MIC-values (minimum inhibitory concentration)” value in assay [1] and in assay [2] was 1.6 ppm each time.

Regarding `[O-][S+]1CCON=C1c1cc2ccccc2s1` (stereo not shown) [component (II-a), 3-(benzo[b]thien-2-yl)-5,6-dihydro-1,4,2-oxathiazine 4-oxide], the “MIC-values (minimum inhibitory concentration)” value is 6.2 ppm in assay [1] and 1.6 ppm in assay [2].

Take `N#Cc1c(-c2ccc(Cl)cc2)[nH]c(C(F)(F)F)c1Br` [component (I), 4-bromo-2-(4-chlorophenyl)-5-(trifluoromethyl)-1H-pyrrole-3-carbonitrile]: the “MIC-values (minimum inhibitory concentration)” value in assay [1] and in assay [2] was > 100* ppm throughout.

`Cc1ccc(N(SC(F)(Cl)Cl)S(=O)(=O)N(C)C)cc1` [component (II-b), 1,1-dichloro-N-[(dimethylamino)sulfonyl]-1-fluoro-N-(4-methylphenyl)-methanesulfenamide]: the “MIC-values (minimum inhibitory concentration)” value in assay [1] came to 12.5 ppm; in assay [2], 25 ppm.
